{"source": "ChEMBL document CHEMBL1149456", "about": "“Substituted 4-hydroxyphenyl sulfonamides as pathway-selective estrogen receptor ligands” (Bioorg Med Chem Lett, 2006)", "key": {"Estrogen receptor [1]": {"biological_target": "T1, Estrogen receptor (Homo sapiens, UniProt P03372)", "T1 sequence (P03372 whole entry)": "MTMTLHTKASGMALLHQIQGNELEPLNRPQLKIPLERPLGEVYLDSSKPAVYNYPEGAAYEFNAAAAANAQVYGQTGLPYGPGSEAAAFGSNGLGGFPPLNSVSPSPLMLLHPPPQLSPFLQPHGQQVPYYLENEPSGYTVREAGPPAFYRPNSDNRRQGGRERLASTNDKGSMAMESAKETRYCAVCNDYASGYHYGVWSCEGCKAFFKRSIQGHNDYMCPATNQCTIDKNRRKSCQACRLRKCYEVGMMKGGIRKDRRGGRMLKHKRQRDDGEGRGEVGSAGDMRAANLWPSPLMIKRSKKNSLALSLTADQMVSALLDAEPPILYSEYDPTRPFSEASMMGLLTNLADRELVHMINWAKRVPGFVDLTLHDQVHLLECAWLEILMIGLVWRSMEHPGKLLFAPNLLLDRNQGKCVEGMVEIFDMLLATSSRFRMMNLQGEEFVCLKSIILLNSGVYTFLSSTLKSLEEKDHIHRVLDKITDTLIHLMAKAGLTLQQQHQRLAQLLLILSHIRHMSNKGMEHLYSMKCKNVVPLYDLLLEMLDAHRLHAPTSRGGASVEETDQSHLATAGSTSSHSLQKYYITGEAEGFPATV", "assay": "Inhibition of binding to ER in Ad5-wt-ER-infected HAECT1 cells by NF-kappaB-mediated luciferase reporter; call rule not given here", "format": "functional, cell-based"}, "Estrogen receptor [2]": {"biological_target": "T1, Estrogen receptor", "assay": "Effect on binding to ER in Ad5-wt-ER-infected HAECT1 cells by creatine kinase expression", "format": "functional, cell-based"}}}
{"compound": "CCN(c1ccccc1)S(=O)(=O)c1ccc(O)c(OC)c1", "values": [{"measurement": "IC50", "setting": "Estrogen receptor [1]; haect1", "result": "Not Active"}]}
{"compound": "CCCN(c1c(C)cccc1C)S(=O)(=O)c1ccc(O)c(C)c1", "values": [{"measurement": "EC50", "setting": "Estrogen receptor [2]; read-out: EC50", "result": 0.075, "unit": "µM"}, {"measurement": "IC50", "setting": "Estrogen receptor [1]; read-out: IC50", "result": 0.014, "unit": "µM"}]}
{"compound": "O=S(=O)(Nc1ccccc1)c1ccc(O)cc1", "values": [{"measurement": "IC50", "setting": "Estrogen receptor [1]; haect1", "result": "Not Active"}]}
{"compound": "CCN(c1ccc(OC)cc1)S(=O)(=O)c1ccc(O)cc1", "values": [{"measurement": "IC50", "setting": "Estrogen receptor [1]; haect1", "result": "Not Active"}]}
{"compound": "CCCN(c1ccccc1Br)S(=O)(=O)c1ccc(O)c(C)c1", "values": [{"measurement": "EC50", "setting": "Estrogen receptor [2]; read-out: EC50", "result": 0.48, "unit": "µM"}, {"measurement": "IC50", "setting": "Estrogen receptor [1]; read-out: IC50", "result": 0.04, "unit": "µM"}]}
{"compound": "CCN(c1ccccc1Br)S(=O)(=O)c1ccc(O)cc1", "values": [{"measurement": "EC50", "setting": "Estrogen receptor [2]; read-out: EC50", "result": 0.378, "unit": "µM"}, {"measurement": "IC50", "setting": "Estrogen receptor [1]; read-out: IC50", "result": 0.09, "unit": "µM"}]}
{"compound": "CCCN(c1c(CC)cccc1CC)S(=O)(=O)c1ccc(O)c(C)c1", "values": [{"measurement": "EC50", "setting": "Estrogen receptor [2]; read-out: EC50", "result": 0.213, "unit": "µM"}, {"measurement": "IC50", "setting": "Estrogen receptor [1]; read-out: IC50", "result": 0.005, "unit": "µM"}]}
{"compound": "CCN(c1cccc(OC)c1)S(=O)(=O)c1ccc(O)cc1", "values": [{"measurement": "EC50", "setting": "Estrogen receptor [2]; read-out: EC50", "result": 0.83, "unit": "µM"}, {"measurement": "IC50", "setting": "Estrogen receptor [1]; read-out: IC50", "result": 1.97, "unit": "µM"}]}
{"compound": "CCCN(c1c(C)cccc1Cl)S(=O)(=O)c1ccc(O)c(C)c1", "values": [{"measurement": "EC50", "setting": "Estrogen receptor [2]; read-out: EC50", "result": 0.153, "unit": "µM"}, {"measurement": "IC50", "setting": "Estrogen receptor [1]; read-out: IC50", "result": 0.026, "unit": "µM"}]}
{"compound": "CCCN(c1c(Cl)cccc1Cl)S(=O)(=O)c1ccc(O)c(C)c1", "values": [{"measurement": "EC50", "setting": "Estrogen receptor [2]; read-out: EC50", "result": 0.378, "unit": "µM"}, {"measurement": "IC50", "setting": "Estrogen receptor [1]; read-out: IC50", "result": 0.016, "unit": "µM"}]}
{"compound": "CCCN(c1ccccc1Br)S(=O)(=O)c1ccc(O)cc1", "values": [{"measurement": "EC50", "setting": "Estrogen receptor [2]; read-out: EC50", "result": 0.151, "unit": "µM"}, {"measurement": "IC50", "setting": "Estrogen receptor [1]; read-out: IC50", "result": 0.026, "unit": "µM"}]}
{"compound": "CCN(c1ccccc1)S(=O)(=O)c1ccc(O)c(C)c1", "values": [{"measurement": "EC50", "setting": "Estrogen receptor [2]; read-out: EC50", "result": 2.14, "unit": "µM"}, {"measurement": "IC50", "setting": "Estrogen receptor [1]; read-out: IC50", "result": 0.328, "unit": "µM"}]}
{"compound": "O=S(=O)(c1ccc(O)cc1)N(c1ccccc1)c1ccccc1", "values": [{"measurement": "EC50", "setting": "Estrogen receptor [2]; read-out: EC50", "result": 1.54, "unit": "µM"}, {"measurement": "IC50", "setting": "Estrogen receptor [1]; read-out: IC50", "result": 0.41, "unit": "µM"}]}
{"compound": "CCN(c1ccc(O)cc1)S(=O)(=O)c1ccc(O)cc1", "values": [{"measurement": "EC50", "setting": "Estrogen receptor [2]; read-out: EC50", "result": 1.39, "unit": "µM"}, {"measurement": "IC50", "setting": "Estrogen receptor [1]; read-out: IC50", "result": 0.272, "unit": "µM"}]}
{"compound": "CC(C)(C)CN(c1ccccc1)S(=O)(=O)c1ccc(O)cc1", "values": [{"measurement": "EC50", "setting": "Estrogen receptor [2]; read-out: EC50", "result": "> 2.5", "unit": "µM"}, {"measurement": "IC50", "setting": "Estrogen receptor [1]; read-out: IC50", "result": 1.37, "unit": "µM"}]}
{"compound": "CCCN(c1ccccc1F)S(=O)(=O)c1ccc(O)cc1", "values": [{"measurement": "EC50", "setting": "Estrogen receptor [2]; read-out: EC50", "result": 0.161, "unit": "µM"}, {"measurement": "IC50", "setting": "Estrogen receptor [1]; read-out: IC50", "result": 0.074, "unit": "µM"}]}
{"compound": "O=S(=O)(c1ccc(O)cc1)N1CCCc2ccccc21", "values": [{"measurement": "IC50", "setting": "Estrogen receptor [1]; haect1", "result": "Not Active"}]}
{"compound": "CCCCN(c1ccccc1)S(=O)(=O)c1ccc(O)cc1", "values": [{"measurement": "EC50", "setting": "Estrogen receptor [2]; read-out: EC50", "result": 0.705, "unit": "µM"}, {"measurement": "IC50", "setting": "Estrogen receptor [1]; read-out: IC50", "result": 0.317, "unit": "µM"}]}
{"compound": "O=S(=O)(c1ccc(O)cc1)N(Cc1ccccc1)c1ccccc1", "values": [{"measurement": "EC50", "setting": "Estrogen receptor [2]; read-out: EC50", "result": 0.242, "unit": "µM"}, {"measurement": "IC50", "setting": "Estrogen receptor [1]; read-out: IC50", "result": 0.5, "unit": "µM"}]}
{"compound": "CCCN(c1ccccc1Cl)S(=O)(=O)c1ccc(O)c(C)c1", "values": [{"measurement": "EC50", "setting": "Estrogen receptor [2]; read-out: EC50", "result": 0.65, "unit": "µM"}, {"measurement": "IC50", "setting": "Estrogen receptor [1]; read-out: IC50", "result": 0.051, "unit": "µM"}]}
{"compound": "CC1CCc2ccccc2N1S(=O)(=O)c1ccc(O)cc1", "note": "(stereo not drawn)", "values": [{"measurement": "EC50", "setting": "Estrogen receptor [2]; read-out: EC50", "result": "> 1", "unit": "µM"}, {"measurement": "IC50", "setting": "Estrogen receptor [1]; read-out: IC50", "result": 0.479, "unit": "µM"}]}
{"compound": "CCCN(c1ccccc1-c1ccccc1)S(=O)(=O)c1ccc(O)c(C)c1", "values": [{"measurement": "EC50", "setting": "Estrogen receptor [2]; read-out: EC50", "result": "> 2.89", "unit": "µM"}, {"measurement": "IC50", "setting": "Estrogen receptor [1]; read-out: IC50", "result": 0.253, "unit": "µM"}]}
{"compound": "CC(C)N(c1ccccc1)S(=O)(=O)c1ccc(O)cc1", "values": [{"measurement": "EC50", "setting": "Estrogen receptor [2]; read-out: EC50", "result": 1.99, "unit": "µM"}, {"measurement": "IC50", "setting": "Estrogen receptor [1]; read-out: IC50", "result": 0.871, "unit": "µM"}]}
{"compound": "CCCN(c1ccccc1)S(=O)(=O)c1ccc(O)cc1", "values": [{"measurement": "EC50", "setting": "Estrogen receptor [2]; read-out: EC50", "result": 1.43, "unit": "µM"}, {"measurement": "IC50", "setting": "Estrogen receptor [1]; read-out: IC50", "result": 0.303, "unit": "µM"}]}
{"compound": "CCCN(c1ccccc1Cl)S(=O)(=O)c1ccc(O)cc1", "values": [{"measurement": "EC50", "setting": "Estrogen receptor [2]; read-out: EC50", "result": 0.144, "unit": "µM"}, {"measurement": "IC50", "setting": "Estrogen receptor [1]; read-out: IC50", "result": 0.042, "unit": "µM"}]}
{"compound": "CCCN(c1c(C)cccc1CC)S(=O)(=O)c1ccc(O)c(C)c1", "values": [{"measurement": "EC50", "setting": "Estrogen receptor [2]; read-out: EC50", "result": 0.012, "unit": "µM"}, {"measurement": "IC50", "setting": "Estrogen receptor [1]; read-out: IC50", "result": 0.007, "unit": "µM"}]}
{"compound": "CCCN(c1ccccc1Br)S(=O)(=O)c1ccc(O)c(C(F)(F)F)c1", "values": [{"measurement": "EC50", "setting": "Estrogen receptor [2]; haect1", "result": "Not Active"}, {"measurement": "IC50", "setting": "Estrogen receptor [1]; read-out: IC50", "result": 0.06, "unit": "µM"}]}
{"compound": "O=S(=O)(c1ccc(O)cc1)N(CCO)c1ccccc1", "values": [{"measurement": "IC50", "setting": "Estrogen receptor [1]; haect1", "result": "Not Active"}]}
{"compound": "O=S1(=O)c2ccc(O)cc2CCN1c1ccccc1Cl", "values": [{"measurement": "EC50", "setting": "Estrogen receptor [2]; haect1", "result": "Not Active"}, {"measurement": "IC50", "setting": "Estrogen receptor [1]; read-out: IC50", "result": 0.892, "unit": "µM"}]}
{"compound": "CCN(c1ccccc1)S(=O)(=O)c1ccc(O)cc1", "values": [{"measurement": "EC50", "setting": "Estrogen receptor [2]; read-out: EC50", "result": 1.6, "unit": "µM"}, {"measurement": "IC50", "setting": "Estrogen receptor [1]; read-out: IC50", "result": 0.404, "unit": "µM"}]}
{"compound": "CCCN(c1ccccc1C)S(=O)(=O)c1ccc(O)c(C)c1", "values": [{"measurement": "EC50", "setting": "Estrogen receptor [2]; read-out: EC50", "result": 0.923, "unit": "µM"}, {"measurement": "IC50", "setting": "Estrogen receptor [1]; read-out: IC50", "result": 0.109, "unit": "µM"}]}
{"compound": "CCCN(c1ccccc1C(F)(F)F)S(=O)(=O)c1ccc(O)cc1", "values": [{"measurement": "EC50", "setting": "Estrogen receptor [2]; read-out: EC50", "result": 0.243, "unit": "µM"}, {"measurement": "IC50", "setting": "Estrogen receptor [1]; read-out: IC50", "result": 0.054, "unit": "µM"}]}
{"compound": "O=S(=O)(c1ccc(O)cc1)N(c1ccccc1)C1CCCCC1", "values": [{"measurement": "EC50", "setting": "Estrogen receptor [2]; read-out: EC50", "result": 0.534, "unit": "µM"}, {"measurement": "IC50", "setting": "Estrogen receptor [1]; read-out: IC50", "result": 0.866, "unit": "µM"}]}
{"compound": "CN(c1ccccc1)S(=O)(=O)c1ccc(O)cc1", "values": [{"measurement": "IC50", "setting": "Estrogen receptor [1]; haect1", "result": "Not Active"}]}
{"compound": "CCCN(c1c(C)cccc1Cl)S(=O)(=O)c1ccc(O)cc1", "values": [{"measurement": "EC50", "setting": "Estrogen receptor [2]; read-out: EC50", "result": 0.063, "unit": "µM"}, {"measurement": "IC50", "setting": "Estrogen receptor [1]; read-out: IC50", "result": 0.024, "unit": "µM"}]}
{"compound": "CCN(c1ccccc1OC)S(=O)(=O)c1ccc(O)cc1", "values": [{"measurement": "EC50", "setting": "Estrogen receptor [2]; read-out: EC50", "result": 2.17, "unit": "µM"}, {"measurement": "IC50", "setting": "Estrogen receptor [1]; read-out: IC50", "result": 0.83, "unit": "µM"}]}
{"compound": "C=CCN(c1ccccc1)S(=O)(=O)c1ccc(O)cc1", "values": [{"measurement": "EC50", "setting": "Estrogen receptor [2]; read-out: EC50", "result": 0.599, "unit": "µM"}, {"measurement": "IC50", "setting": "Estrogen receptor [1]; read-out: IC50", "result": 0.235, "unit": "µM"}]}
